Source: the NIST ThermoML archive (doi:10.1021/je060291c)
Where “and” joins values, the source holds several entries; their conditions need not be identical. Equal values may be shown once. ± gives the expanded uncertainty stated by the source.

Test: wn = mass fraction of the nth substance listed
Conditions: Liquid, Pulse-echo method, w2 = 0.49

CC(F)(F)F [1,1,1-trifluoroethane] + FC(F)C(F)(F)F
speed of sound
Conditions	288.18 K	298.19 K	308.19 K	318.2 K	328.17 K	338.18 K
1290 kPa	–	375.4 ± 1.3 m/s	–	–	–	–
1300 kPa	–	375.4 ± 1.3 m/s and 375.5 ± 1.3 m/s	–	–	–	–
1360 kPa	–	376.9 ± 1.3 m/s	–	–	–	–
1510 kPa	–	379.6 ± 1.3 m/s	–	–	–	–
1630 kPa	–	381.8 ± 1.3 m/s	–	–	–	–
1670 kPa	–	–	324.1 ± 1.3 m/s and 324.2 ± 1.3 m/s	–	–	–
1740 kPa	–	–	326 ± 1.3 m/s	–	–	–
1750 kPa	–	384.2 ± 1.3 m/s	–	–	–	–
1840 kPa	–	–	328.4 ± 1.3 m/s	–	–	–
2010 kPa	440.2 ± 1.3 m/s	388.7 ± 1.3 m/s	332.4 ± 1.3 m/s	–	–	–
2120 kPa	–	–	–	270.3 ± 1.4 m/s	–	–
2180 kPa	–	–	–	272.6 ± 1.4 m/s	–	–
2250 kPa	444 ± 1.3 m/s	393 ± 1.3 m/s	338 ± 1.3 m/s	274.9 ± 1.4 m/s	–	–
2360 kPa	–	–	–	278.2 ± 1.4 m/s	–	–
2510 kPa	447.4 ± 1.3 m/s	397.3 ± 1.3 m/s	343.6 ± 1.3 m/s	282.9 ± 1.4 m/s	–	–
2660 kPa	–	–	–	–	211.8 ± 1.4 m/s and 211.9 ± 1.4 m/s	–
2750 kPa	450.9 ± 1.3 m/s	401.5 ± 1.3 m/s	348.9 ± 1.3 m/s	290.4 ± 1.4 m/s	216.9 ± 1.4 m/s	–
2880 kPa	–	–	–	–	223.4 ± 1.4 m/s	–
3010 kPa	454.3 ± 1.3 m/s	405.6 ± 1.3 m/s	354 ± 1.3 m/s	297.5 ± 1.3 m/s	229.4 ± 1.4 m/s	–
3380 kPa	–	–	–	–	–	154.6 ± 1.5 m/s
3440 kPa	–	–	–	–	–	160.1 ± 1.5 m/s
3500 kPa	460.9 ± 1.3 m/s	413.4 ± 1.3 m/s	363.8 ± 1.3 m/s	310.3 ± 1.3 m/s	249.7 ± 1.4 m/s	165.9 ± 1.5 m/s
3660 kPa	–	–	–	–	–	178.1 ± 1.5 m/s
3830 kPa	–	–	–	–	–	189 ± 1.4 m/s
4000 kPa	467.5 ± 1.3 m/s	421.1 ± 1.3 m/s	373.1 ± 1.3 m/s	322.1 ± 1.3 m/s	266.3 ± 1.3 m/s	199.1 ± 1.4 m/s
4250 kPa	–	–	–	–	–	211.1 ± 1.4 m/s
4500 kPa	473.5 ± 1.3 m/s	428.4 ± 1.3 m/s	381.8 ± 1.3 m/s	333 ± 1.3 m/s	280.9 ± 1.3 m/s	221.8 ± 1.3 m/s
5000 kPa	479.7 ± 1.3 m/s	435.4 ± 1.3 m/s	390.1 ± 1.3 m/s	343.1 ± 1.3 m/s	294 ± 1.3 m/s	240.3 ± 1.3 m/s
6010 kPa	491.5 ± 1.3 m/s	448.7 ± 1.3 m/s	405.6 ± 1.3 m/s	361.7 ± 1.3 m/s	316.6 ± 1.3 m/s	269.8 ± 1.3 m/s
7010 kPa	502.5 ± 1.3 m/s	461.1 ± 1.3 m/s	419.8 ± 1.3 m/s	378.2 ± 1.3 m/s	336.3 ± 1.3 m/s	293.8 ± 1.3 m/s
8000 kPa	513.1 ± 1.3 m/s	473 ± 1.3 m/s	433.3 ± 1.3 m/s	393.4 ± 1.3 m/s	353.7 ± 1.3 m/s and 354 ± 1.3 m/s and 353.9 ± 1.3 m/s	314.4 ± 1.3 m/s
9000 kPa	523.2 ± 1.3 m/s	484.3 ± 1.3 m/s	445.6 ± 1.3 m/s	407.7 ± 1.3 m/s	370 ± 1.3 m/s	333 ± 1.3 m/s
10000 kPa	532.9 ± 1.3 m/s	494.9 ± 1.3 m/s	457.5 ± 1.3 m/s	420.9 ± 1.3 m/s	384.7 ± 1.3 m/s	349.3 ± 1.3 m/s
12000 kPa	551.3 ± 1.3 m/s	515.1 ± 1.3 m/s	479.6 ± 1.3 m/s	445 ± 1.3 m/s	411.3 ± 1.3 m/s	378.7 ± 1.3 m/s
14000 kPa	568.6 ± 1.3 m/s	533.7 ± 1.3 m/s	499.8 ± 1.3 m/s	466.9 ± 1.3 m/s	435.1 ± 1.3 m/s	404.3 ± 1.3 m/s
16010 kPa	585 ± 1.3 m/s	551.1 ± 1.3 m/s	518.5 ± 1.3 m/s	487 ± 1.3 m/s	456.6 ± 1.3 m/s	427.4 ± 1.3 m/s
18000 kPa	600.2 ± 1.3 m/s	567.6 ± 1.3 m/s	536.1 ± 1.3 m/s	505.5 ± 1.3 m/s	476.5 ± 1.3 m/s	448.3 ± 1.3 m/s
20000 kPa	614.9 ± 1.3 m/s	583.2 ± 1.3 m/s	552.6 ± 1.3 m/s	523 ± 1.3 m/s	494.7 ± 1.3 m/s	467.8 ± 1.3 m/s
23000 kPa	635.8 ± 1.3 m/s	605.1 ± 1.3 m/s	575.7 ± 1.3 m/s	547.4 ± 1.3 m/s	520.4 ± 1.3 m/s	494.6 ± 1.3 m/s
26000 kPa	655.3 ± 1.3 m/s	625.5 ± 1.3 m/s	597.3 ± 1.3 m/s	569.9 ± 1.3 m/s	543.8 ± 1.3 m/s	519 ± 1.3 m/s
29010 kPa	673.8 ± 1.3 m/s	645.1 ± 1.3 m/s	617.4 ± 1.3 m/s	591 ± 1.3 m/s	565.9 ± 1.3 m/s	541.7 ± 1.3 m/s
32000 kPa	691.2 ± 1.3 m/s	663.2 ± 1.3 m/s	636.3 ± 1.3 m/s	610.7 ± 1.3 m/s	586.4 ± 1.3 m/s	563 ± 1.3 m/s
35000 kPa	708.3 ± 1.3 m/s	680.8 ± 1.3 m/s	654.6 ± 1.3 m/s and 654.3 ± 1.3 m/s	629.4 ± 1.3 m/s	605.5 ± 1.3 m/s and 605.8 ± 1.3 m/s	583 ± 1.3 m/s
40000 kPa	734.9 ± 1.3 m/s	708.2 ± 1.3 m/s	682.9 ± 1.3 m/s	658.7 ± 1.3 m/s	635.7 ± 1.3 m/s	613.8 ± 1.3 m/s
45000 kPa	759.7 ± 1.3 m/s	734 ± 1.3 m/s	709.3 ± 1.3 m/s	685.8 ± 1.3 m/s	663.5 ± 1.3 m/s	642.4 ± 1.3 m/s
50000 kPa	783.2 ± 1.3 m/s	758 ± 1.3 m/s	734 ± 1.3 m/s	711.3 ± 1.3 m/s	689.5 ± 1.3 m/s	669 ± 1.3 m/s
55000 kPa	805.1 ± 1.3 m/s	780.7 ± 1.3 m/s and 780.9 ± 1.3 m/s	757.3 ± 1.3 m/s and 757.1 ± 1.3 m/s	734.9 ± 1.3 m/s	714.1 ± 1.3 m/s	693.9 ± 1.3 m/s
60000 kPa	826.3 ± 1.3 m/s	802.3 ± 1.3 m/s and 802.4 ± 1.3 m/s	779.5 ± 1.3 m/s	757.7 ± 1.3 m/s	737.1 ± 1.3 m/s	717.2 ± 1.3 m/s
65000 kPa	846.7 ± 1.3 m/s	823.1 ± 1.3 m/s	800.7 ± 1.3 m/s	779.3 ± 1.3 m/s	759 ± 1.3 m/s	739.8 ± 1.3 m/s

Conditions	speed of sound [m/s]
298.19 K	375.4 ± 1.3
308.19 K	324.2 ± 1.3
318.2 K	270.3 ± 1.3
328.17 K	211.8 ± 1.3
